In US20230085307A1, “PYRIDAZINONE COMPOUND AND HERBICIDE” (NISSAN CHEMICAL CORPORATION, priority 2019, published 2023):

Legend:
transplanted rice = assay: Test Example 1: effect on crop, application before weed generation under submerged conditions (Table 16, symbol a); format: in vivo; conditions: amount of applied herbicide 214 g/ha
How it was run: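 Emulsion formulation, water-diluted to set dose, was put onto the flooded surface (4 cm depth, alluvial soil) the same day weeds were sown and 2.5-leaf rice transplanted. After 3 weeks at 25-30 °C under glass, each species was rated 0 (≤5% kill) to 5 (≥90% kill).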

directly sowed rice = assay: Test Example 3: effect on crop by foliage application, Wagner pot (Table 18, symbol b); format: in vivo; conditions: 214 g/ha
How it was run: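 Plants were sown in alluvial soil held under 0.1–0.5 cm standing water and grown 14 days in a greenhouse at 25–30 °C. An emulsifiable formulation, water-diluted to the set dose, was then sprayed onto the foliage, and effects were scored three weeks later using previously defined criteria.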

corn [1] = assay: Test Example 4: effect on crop by soil treatment (Table 19, symbol c); format: in vivo; conditions: amount of applied herbicide 214 g/ha
How it was run: (§1)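 In this soil treatment, the formulated compound reached the seeds only through the soil: seeds were buried about 1.5 cm deep in sterilized diluvial soil, then the diluted emulsion was sprayed over the surface. After three weeks at 25° C. to 30° C. in a greenhouse, effects were graded on criteria from an earlier test.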

soybean [2] = assay: Test Example 4: effect on crop by soil treatment (Table 19, symbol d); format: in vivo; conditions: amount of applied herbicide 214 g/ha
How it was run: as §1

wheat [3] = assay: Test Example 4: effect on crop by soil treatment (Table 19, symbol e); format: in vivo; conditions: amount of applied herbicide 214 g/ha
How it was run: as §1

beet [4] = assay: Test Example 4: effect on crop by soil treatment (Table 19, symbol f); format: in vivo; conditions: amount of applied herbicide 214 g/ha
How it was run: as §1

rapeseed [5] = assay: Test Example 4: effect on crop by soil treatment (Table 19, symbol g); format: in vivo; conditions: amount of applied herbicide 214 g/ha
How it was run: as §1

false cleavers = assay: Test Example 5: herbicidal effect by foliage application, plastic box (Table 20, symbol Q); format: in vivo, false cleavers (Galium spurium); conditions: foliage application, 214 g/ha, three weeks after application
How it was run: (§2)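 Plants were sown into sterilized diluvial soil under about 1.5 cm cover and kept in a greenhouse at 25° C. to 30° C. Fourteen days on, foliage received an even spray of the diluted emulsion. Herbicidal or crop effect was judged three weeks afterwards.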

corn [6] = assay: Test Example 5: effect on crop by foliage application, plastic box (Table 20, symbol c); format: in vivo; conditions: 214 g/ha, three weeks after application
How it was run: as §2

soybean [7] = assay: Test Example 5: effect on crop by foliage application, plastic box (Table 20, symbol d); format: in vivo; conditions: 214 g/ha, three weeks after application
How it was run: as §2

wheat [8] = assay: Test Example 5: effect on crop by foliage application, plastic box (Table 20, symbol e); format: in vivo; conditions: 214 g/ha, three weeks after application
How it was run: as §2

beet [9] = assay: Test Example 5: effect on crop by foliage application, plastic box (Table 20, symbol f); format: in vivo; conditions: 214 g/ha, three weeks after application
How it was run: as §2

rapeseed [10] = assay: Test Example 5: effect on crop by foliage application, plastic box (Table 20, symbol g); format: in vivo; conditions: 214 g/ha, three weeks after application
How it was run: as §2

## COc1ccc2c(-c3c(O)c(C)nn(C)c3=O)c(-c3ccccc3OC)sc2c1 [Compound No. 3-065, 5-hydroxy-4-(6-methoxy-2-(2-methoxyphenyl)benzo[b]thiophen-3-yl)-2,6-dimethylpyridazin-3(2H)-one]
Transplanted rice
  Effect on crop, a: transplanted rice: 0 (Herbicidal rate of 5% or less (almost no effect))
Directly sowed rice
  effect on directly sowed rice (b): 1 (Herbicidal rate of 5% or more and less than 20%)
Corn [1]
  c: corn, effect on crop grade: 0 (Herbicidal rate of 5% or less (almost no effect))
Soybean [2]
  d: soybean, effect on crop grade: 0 (Herbicidal rate of 5% or less (almost no effect))
Wheat [3]
  e: wheat, effect on crop grade: 0 (Herbicidal rate of 5% or less (almost no effect))
Beet [4]
  f: beet, effect on crop grade: 3 (Herbicidal rate of 40% or more and less than 70%)
Rapeseed [5]
  g: rapeseed, effect on crop grade: 5 (Herbicidal rate of 90% or more (almost completely withered))
False cleavers
  Q: false cleavers, herbicidal effect grade: 5 (Herbicidal rate of 90% or more (almost completely withered))
Corn [6]
  c: corn, effect on crop grade: 0 (Herbicidal rate of 5% or less (almost no effect))
Soybean [7]
  d: soybean, effect on crop grade: 5 (Herbicidal rate of 90% or more (almost completely withered))
Wheat [8]
  e: wheat, effect on crop grade: 2 (Herbicidal rate of 20% or more and less than 40%)
Beet [9]
  f: beet, effect on crop grade: 5 (Herbicidal rate of 90% or more (almost completely withered))
Rapeseed [10]
  g: rapeseed, effect on crop grade: 5 (Herbicidal rate of 90% or more (almost completely withered))
other
  melting point: 243 to 244 °C
